# Assay results as given in US7709645B2, “Pyrrolo-pyridine kinase modulators” (SGX Pharmaceuticals, Inc., priority 2004, dated 2010).
# Biological target: T1, T315I mutant form of BCR-ABL in Ba/F3 cells (Homo sapiens, UniProt P00519, T315I)
# T1 construct: expressed in transfected cells; host or cells: Ba/F3 cells; the other entry of the earlier key: BCR (P11274, Breakpoint cluster region protein)
# T1 sequence (P00519 242-493 T315I limits assumed): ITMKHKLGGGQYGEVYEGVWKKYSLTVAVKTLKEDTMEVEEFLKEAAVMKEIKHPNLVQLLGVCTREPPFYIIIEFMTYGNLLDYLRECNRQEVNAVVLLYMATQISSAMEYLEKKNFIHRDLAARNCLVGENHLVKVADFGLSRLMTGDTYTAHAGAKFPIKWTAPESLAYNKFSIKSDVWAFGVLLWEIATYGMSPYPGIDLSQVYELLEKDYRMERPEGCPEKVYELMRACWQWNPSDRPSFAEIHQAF
# Assay: Abl_T315I p-ELISA Cellular Assay (BCR-ABL phospho-ELISA)
# Type: cell-based
# Conditions: 60-120 minutes incubation
# Procedure: Cells (Ba/F3 cells transfected with WT BCR-ABL, other kinases, or T315I, Y253F, M351T, E255K, or other mutant forms of BCR-ABL) were grown in the absence of IL-3 at least ½ week before the assay. The day before assay, the cells were fed with fresh media so that at the time of assay the cells were in log phase. Ba/F3 cells that had been grown in the absence of IL-3 for at least ½ week were resuspended in RPMI 1640 so that each well of a 96-well plate would contain approximately 200,000 cells. Cells were distributed in a 96-well plate containing serially diluted concentrations of test compounds. Cells were typically incubated with or without test compounds for 60-120 minutes at 5% CO2, 37° C. The incubation was performed with or without other additives such as 10% FCS or 50% human plasma. After incubation of compounds, lysis buffer was added and incubated for 10-15 minutes; the lysate was cleared by centrifugation.
# To make the ELISA plate, commercially available Anti-ABL antibodies (e.g. (Ab-3, Calbiochem OP20) were prepared at a concentration of 0.125 μg/ml in coating buffer (0.1M Na-carbonate, pH 9.5), and plated at 10 ml per plate (12.5 μl 100 μg/ml Ab/10 ml). In a high binding multi-well plate, 100 μl Ab in coating buffer were added to each well, and each plate was covered with a plate seal and incubated overnight at 4° C.
# Excess antibody was removed and the ELISA plate was washed 3-4 times with 200 μl of wash buffer (0.05% Tween in PBS, pH 7.4). 150 μl of lysate (see above) were transferred to the ELISA plate. Plates were sealed and incubated 2 hours at room temperature. The detection antibody (e.g. HRP conjugated anti-pTyr or unconjugated α-p-Y 4G10, Upstate) was prepared in assay diluent. The antibody was diluted 1:1000 (stock=2 μg/μl, 200 μg in 100 μl; f.c.=2 μg/ml) in assay diluent and 10 ml of diluted antibody per plate were added. The lysate was removed from the ELISA plates, and wells were washed four times with 200 μl of wash buffer per well. 100 μl of detection antibody was added to each well; the plate was covered, and incubated 1 hr at room temperature (21° C.). Excess detection antibody was removed from the ELISA plates, and the wells were washed four times with 200 μl of wash buffer per well.
# If necessary, (i.e. for unconjugated anti-pTyr antibody) secondary antibody (goat anti-rabbit HRP) was diluted 1:3000 in assay diluent (3.33 μl per 10 ml diluent) and added at 10 ml of diluted antibody per plate. Excess secondary antibody was removed from the ELISA plate, and the plate was washed four times with 200 μl per well of wash buffer.
# Substrate Reagent A and Substrate Reagent B (Pierce Cat#37070 SuperSignal ELISA Pico Chemiluminescent Substrate) were added immediately before use (10 ml resultant solution per plate). 100 μl substrate were added per well, mixed for 1 minute, and chemiluminescent signal was measured with a luminometer.
row,Compound,IC50 [nM]
1,N#Cc1cc(-c2cnc3[nH]cc(-c4ccc5[nH]ccc5c4)c3c2)ccc1O [AE20],< 100
2,c1cc2cc(-c3c[nH]c4ncc(-c5ccc6[nH]cnc6c5)cc34)ccc2[nH]1 [AE22],100 to 1000
3,Nc1nc(-c2c[nH]c3ncc(-c4ccc5[nH]ccc5c4)cc23)cs1 [AE55],< 100
4,Oc1cccc(-c2cnc3[nH]cc(-c4ccn[nH]4)c3c2)c1 [AE49],100 to 1000
5,COc1ccccc1-c1c[nH]c2ncc(-c3ccc(S(N)(=O)=O)s3)cc12 [AE11],100 to 1000
6,Oc1cccc(-c2cnc3[nH]cc(-c4ccc(O)c(F)c4)c3c2)c1 [AE48],100 to 1000
7,O=C(c1cncc(-c2cnc3[nH]cc(-c4ccc5cc[nH]c5c4)c3c2)c1)N1CCOCC1 [AE14],< 100
8,COc1ccccc1-c1c[nH]c2ncc(-c3csc(C(=O)N(C)C)c3)cc12 [AE3],< 100

# Continued, values first:
row,IC50 [nM],Compound
1,100 to 1000,COc1ccccc1-c1c[nH]c2ncc(-c3cc[nH]c(=O)c3)cc12 [AE9]
2,< 100,CNC(=O)c1cncc(-c2cnc3[nH]cc(-c4ccccc4OC)c3c2)c1 [AE1]
3,< 100,COc1ccccc1-c1c[nH]c2ncc(-c3cccc(C(=N)N4CCCCC4)c3)cc12 [AE42]
4,< 100,COc1cc(-c2cnc3[nH]cc(-c4ccc(O)cc4)c3c2)ccc1O [AE58]
5,< 100,COc1cc(-c2cnc3[nH]cc(-c4ccccc4OC)c3c2)ccc1O [AE64]
6,100 to 1000,CNC(=O)c1cc(-c2cnc3[nH]cc(-c4ccccc4OC)c3c2)cs1 [AE2]
7,< 100,COc1ccccc1-c1c[nH]c2ncc(-c3ccc(O)c(CN4CCCN(C)CC4)c3)cc12 [AE41]
8,100 to 1000,COc1ccccc1-c1c[nH]c2ncc(-c3cccc(S(C)(=O)=O)c3)cc12 [AE13]
